In patent US9513294B2, “Megastokes amino-triazolyl-BODIPY compounds and applications to live neuron staining and human serum albumin FA1 drug site probing” (National University of Singapore, priority 2012, dated 2016):

Assays:
[1] = Absorbance and fluorescence emission spectra (SpectraMax M2); type: physicochemical; settings: for λmax Abs. (nm) / λmax Em. (nm): MKAC compound library
Description: BDC-8 (Blue): absorbance λmax=473 nm, emission λmax=585 nm; MK101-8 (Green): absorbance λmax=474 nm, emission λmax=563 nm; MKHA374-48 (Yellow): absorbance λmax=468 nm, λem=557 nm. The corresponding spectra of a reported BODIPY (BD-27; Red) are also included for comparison: absorbance λmax=551 nm, emission λmax=568 nm. The structures of BDC-8, MK101-8, MKHA374-48 and BD-27 are also depicted.
(§1) ^1H-NMR, ^19F-NMR and ^13C-NMR spectra were recorded on Bruker ACF300 (300 MHz), DPX300 (300 MHz) and AMX500 (500 MHz) spectrometers. High resolution mass spectra (ESI) were obtained on a Finnigan/MAT 95XL-T spectrometer. Spectroscopic and quantum yield data were measured on a SpectraMax M2 spectrophotometer (Molecular Devices). Data analysis was performed using GraphPrism 5.0. Analytical characterization was performed on a HPLC-MS (Agilent-1200 series) with a DAD detector and a single quadrupole mass spectrometer (6130 series) with an ESI probe. Analytical HPLC method: eluents, A: H2O (0.1% HCOOH), B: CH3CN (0.1% HCOOH), gradient 5% B to 95% B (10 min). Reverse-phase Phenomenex C18 Luna column (4.6×50 mm^2, 3.5 […]), flow rate: 1 mL/min.

[2] = Quantum yield measurements versus Acridine Yellow in EtOH; type: physicochemical; settings: for φ (%): quantum yield; for φ (quantum yield): excitation 460 nm
Description: as §1
Quantum yields were calculated by measuring the integrated emission area of the fluorescent spectra and comparing to the area measured for Acridine Yellow in EtOH when excited at 460 nm (Φfluorescence^AcridineYellow=0.47). Quantum yields for the amino-triazolyl-BODIPYs were calculated using the equation below, where F represents the area of fluorescent emission, η is the refractive index of the solvent, and Abs is absorbance at the excitation wavelength selected for standards and samples. Emission was integrated between 510 and 700 nm.

Compound: Cc1ccccc1CNC1=[N+]2C(=C(c3ccc(NC(=O)CCl)cc3)c3ccc(-n4cc(CN(C)Cc5ccccc5)nn4)n3[B-]2(F)F)C=C1 [MKCA101-18]
- λmax Absorp. (nm) ([1]; MKCA compound library, absorbance maximum): 462 nm
- λmax Emission (nm) ([1]; MKCA compound library, fluorescence emission maximum): 562 nm
- φ (%) ([2]; MKCA compound library): 21.53%

Compound: CC(=O)Nc1ccc(C2=C3C=CC(NCc4ccccc4C)=[N+]3[B-](F)(F)n3c2ccc3-n2cc(CC3CCCCC3)nn2)cc1 [MKAC101-8]
- λmax Abs. (nm) ([1]; absorbance maximum): 465 nm
- λmax Em. (nm) ([1]; fluorescence emission maximum): 563 nm
- φ (%) ([2]; MKAC compound library): 21.14%

Compound: O=C(CCl)Nc1ccc(C2=C3C=CC(N4CCCCC4)=[N+]3[B-](F)(F)n3c2ccc3-n2cc(-c3ccc(OC(F)(F)F)cc3)nn2)cc1 [BDCCA-15]
- λmax Absorp. ([1]; BDCCA library, Table 4): 462 nm
- λmax Emission ([1]; BDCCA library, Table 4): 537 nm
- φ (quantum yield) ([2]; BDCCA library, Table 4): 2.2%

Compound: CCCCCCc1cn(-c2ccc3n2[B-](F)(F)[N+]2=C(N4CCCCC4)C=CC2=C3c2ccc(NC(=O)CCl)cc2)nn1 [BDCCA-47]
- λmax Absorp. ([1]; BDCCA library, Table 4): 466 nm
- λmax Emission ([1]; BDCCA library, Table 4): 560 nm
- φ (quantum yield) ([2]; BDCCA library, Table 4): 1.8%

Compound: CC(=O)Nc1ccc(C2=C3C=CC(N4CCCCC4)=[N+]3[B-](F)(F)n3c2ccc3-n2cc(-c3ccc(N(C)C)cc3)nn2)cc1 [BDCAC-13]
- λmax Absorp. ([1]; BDCAC library, Table 3): 467 nm
- λmax Emission ([1]; BDCAC library, Table 3): 619 nm
- φ (quantum yield) ([2]; BDCAC library, Table 3): 0.1%

Compound: COc1ccc(OC)c(CNC2=[N+]3C(=C(c4ccc(NC(C)=O)cc4)c4ccc(-n5cc(CO)nn5)n4[B-]3(F)F)C=C2)c1 [MKAC181-70]
- λmax Abs. (nm) ([1]; absorbance maximum): 465 nm
- λmax Em. (nm) ([1]; fluorescence emission maximum): 559 nm
- φ (%) ([2]; MKAC compound library): 15.37%

Compound: CCCCCCCc1cn(-c2ccc3n2[B-](F)(F)[N+]2=C(N4CCCCC4)C=CC2=C3c2ccc(NC(C)=O)cc2)nn1 [BDCAC-50]
- λmax Absorp. ([1]; BDCAC library, Table 3): 467 nm
- λmax Emission ([1]; BDCAC library, Table 3): 567 nm
- φ (quantum yield) ([2]; BDCAC library, Table 3): 1.4%

Compound: CC(=O)Nc1ccc(C2=C3C=CC(N4CCc5ccccc5C4)=[N+]3[B-](F)(F)n3c2ccc3-n2cc(CN(C)Cc3ccccc3)nn2)cc1 [MKAC66-18]
- λmax Abs. (nm) ([1]; absorbance maximum): 468 nm
- λmax Em. (nm) ([1]; fluorescence emission maximum): 585 nm
- φ (%) ([2]; MKAC compound library): 1.56%

Compound: COc1ccc(OC)c(CNC2=[N+]3C(=C(c4ccc(N)cc4)c4ccc(-n5cc(CC(C)C)nn5)n4[B-]3(F)F)C=C2)c1 [MK181-43]
- λmax Absorp. ([1]; MK library, Table 5): 475 nm
- λmax Emission ([1]; MK library, Table 5): 566 nm
- φ (quantum yield) ([2]; MK library, Table 5): 0.37%

Compound: Nc1ccc(C2=C3C=CC(N4CCCC4)=[N+]3[B-](F)(F)n3c2ccc3-n2cc(C3CCCC3)nn2)cc1 [MK215-5]
- λmax Absorp. ([1]; MK library, Table 5): 471 nm
- λmax Emission ([1]; MK library, Table 5): 568 nm
- φ (quantum yield) ([2]; MK library, Table 5): 0.53%

Compound: CC(=O)Nc1ccc(C2=C3C=CC(N4CCCCC4)=[N+]3[B-](F)(F)n3c2ccc3-n2cc(COc3ccccc3)nn2)cc1 [BDCAC-17]
- λmax Absorp. ([1]; BDCAC library, Table 3): 465 nm
- λmax Emission ([1]; BDCAC library, Table 3): 584 nm
- φ (quantum yield) ([2]; BDCAC library, Table 3): 0.8%

Compound: Nc1ccc(C2=C3C=CC(N4CCCC4)=[N+]3[B-](F)(F)n3c2ccc3-n2cc(CO)nn2)cc1 [MK215-70]
- λmax Absorp. ([1]; MK library, Table 5): 471 nm
- λmax Emission ([1]; MK library, Table 5): 595 nm
- φ (quantum yield) ([2]; MK library, Table 5): 0.22%

Compound: CCCCCCCCCCc1cn(-c2ccc3n2[B-](F)(F)[N+]2=C(N4CCCCC4)C=CC2=C3c2ccc(NC(C)=O)cc2)nn1 [BDCAC-49]
- λmax Absorp. ([1]; BDCAC library, Table 3): 467 nm
- λmax Emission ([1]; BDCAC library, Table 3): 575 nm
- φ (quantum yield) ([2]; BDCAC library, Table 3): 1.3%

Compound: CCCC(C)c1cn(-c2ccc3n2[B-](F)(F)[N+]2=C(N4CCCC4)C=CC2=C3c2ccc(N)cc2)nn1 (stereo not drawn) [MK215-3]
- λmax Absorp. ([1]; MK library, Table 5): 471 nm
- λmax Emission ([1]; MK library, Table 5): 567 nm
- φ (quantum yield) ([2]; MK library, Table 5): 0.26%

Compound: CCCCc1cn(-c2ccc3n2[B-](F)(F)[N+]2=C(N4CCCCC4)C=CC2=C3c2ccc(NC(C)=O)cc2)nn1 [BDCAC-42]
- λmax Absorp. ([1]; BDCAC library, Table 3): 467 nm
- λmax Emission ([1]; BDCAC library, Table 3): 577 nm
- φ (quantum yield) ([2]; BDCAC library, Table 3): 1.3%

Compound: CC(C)(C)c1ccc(-c2cn(-c3ccc4n3[B-](F)(F)[N+]3=C(N5CCCCC5)C=CC3=C4c3ccc(N)cc3)nn2)cc1 [BDC-11]
- λmax Absorp. ([1]; BDC library, Table 2): 471 nm
- λmax Emission ([1]; BDC library, Table 2): 552 nm
- φ (quantum yield) ([2]; BDC library, Table 2): 0.74%

Compound: Nc1ccc(C2=C3C=CC(N4CCCC4)=[N+]3[B-](F)(F)n3c2ccc3-n2cc(CCc3ccccc3)nn2)cc1 [MK215-19]
- λmax Absorp. ([1]; MK library, Table 5): 471 nm
- λmax Emission ([1]; MK library, Table 5): 578 nm
- φ (quantum yield) ([2]; MK library, Table 5): 0.22%

Compound: CCCC(C)c1cn(-c2ccc3n2[B-](F)(F)[N+]2=C(N4CCCCC4)C=CC2=C3c2ccc(NC(C)=O)cc2)nn1 (stereo not drawn) [BDCAC-3]
- λmax Absorp. ([1]; BDCAC library, Table 3): 467 nm
- λmax Emission ([1]; BDCAC library, Table 3): 585 nm
- φ (quantum yield) ([2]; BDCAC library, Table 3): 1.5%
